Experimental data taken from patent US9777123B2, “Sulfated beta-O4 low molecular weight lignins” (VIRGINIA COMMONWEALTH UNIVERSITY, priority 2013, dated 2017).

Target: T1, SbO4L-thrombin complex (Homo sapiens, UniProt P00734)
T1 construct: purchased Haematologic Technologies, Sigma-Aldrich or Elastin Products Company (not assigned per protease)
Assay: Protamine-mediated reversal of SbO4L inhibition of thrombin
Format: biochemical
Experimental: FIG. 8. Protamine-mediated reversal of SbO4L inhibition of thrombin. Recovery of thrombin activity at varying levels of protamine following 50% inhibition by SbO4L was measured through the Spectrozyme TH hydrolysis assay at pH 7.4. Solid line represents non-linear fit of the data by a logistic function similar to equation 1 to obtain the RC50, the concentration of protamine necessary to recover 50% thrombin activity.
A major advantage of heparin therapy is its amenability to protamine-based reversal. It is also one of the reasons why fondaparinux continues to suffer because its iatrogenic bleeding is difficult to reverse rapidly. To test whether SbO4L inhibition of thrombin can be reversed, we studied the recovery of thrombin activity following successive introduction of protamine. […] The protamine-mediated recovery profile essentially mirrors the SbO4L-induced inhibition profile. More importantly, the level of recovery is quantitative at high enough protamine concentrations. Further, the recovery was instantaneous as no extended incubation was necessary to observe reversal. The concentration of protamine necessary to recover 50% thrombin activity, i.e., RC50, could be calculated using an equation similar to the logistic equation 1 used for inhibition studies and found to be ˜0.1 μg/ml, […] for SbO4L inhibition of thrombin.

protamine
RC50 relative to IC50 (fold higher): 5 fold
RC50, concentration of protamine necessary to recover 50% thrombin activity (after 50% inhibition by SbO4L, pH 7.4, 37° C.): ~0.1 µg/mL
thrombin activity restored (chromogenic test systems): 100%
effect of protamine alone on thrombin activity (controls without SbO4L): did not affect the activity of thrombin
